Reference: patent US20250152585A1, “PHARMACEUTICAL COMPOUND” (Duke Street Bio Limited, priority 2022, published 2025)
Like-named read-outs stand apart in the source and are kept apart here.

Assays:
[1] = target: T1, N-terminally FLAG-tagged PARP2 (amino acids 1-583) (Homo sapiens, UniProt Q9UGN5); test: PARP2 probe displacement HTRF assay; type: binding; conditions: binned Kd
T1 construct: N-terminally FLAG-tagged PARP2 (amino acids 1-583)
Description: Data analysis was performed identical as for PARP1.

[2] = target: T2, full length N-terminally FLAG-tagged PARP1 (Homo sapiens, UniProt P09874); test: PARP1 probe displacement HTRF assay; conditions: for Selectivity: PARP1 over PARP2, ratio Kd (PARP2)/Kd (PARP1); for Kd: binned Kd
T2 sequence (P09874 whole entry): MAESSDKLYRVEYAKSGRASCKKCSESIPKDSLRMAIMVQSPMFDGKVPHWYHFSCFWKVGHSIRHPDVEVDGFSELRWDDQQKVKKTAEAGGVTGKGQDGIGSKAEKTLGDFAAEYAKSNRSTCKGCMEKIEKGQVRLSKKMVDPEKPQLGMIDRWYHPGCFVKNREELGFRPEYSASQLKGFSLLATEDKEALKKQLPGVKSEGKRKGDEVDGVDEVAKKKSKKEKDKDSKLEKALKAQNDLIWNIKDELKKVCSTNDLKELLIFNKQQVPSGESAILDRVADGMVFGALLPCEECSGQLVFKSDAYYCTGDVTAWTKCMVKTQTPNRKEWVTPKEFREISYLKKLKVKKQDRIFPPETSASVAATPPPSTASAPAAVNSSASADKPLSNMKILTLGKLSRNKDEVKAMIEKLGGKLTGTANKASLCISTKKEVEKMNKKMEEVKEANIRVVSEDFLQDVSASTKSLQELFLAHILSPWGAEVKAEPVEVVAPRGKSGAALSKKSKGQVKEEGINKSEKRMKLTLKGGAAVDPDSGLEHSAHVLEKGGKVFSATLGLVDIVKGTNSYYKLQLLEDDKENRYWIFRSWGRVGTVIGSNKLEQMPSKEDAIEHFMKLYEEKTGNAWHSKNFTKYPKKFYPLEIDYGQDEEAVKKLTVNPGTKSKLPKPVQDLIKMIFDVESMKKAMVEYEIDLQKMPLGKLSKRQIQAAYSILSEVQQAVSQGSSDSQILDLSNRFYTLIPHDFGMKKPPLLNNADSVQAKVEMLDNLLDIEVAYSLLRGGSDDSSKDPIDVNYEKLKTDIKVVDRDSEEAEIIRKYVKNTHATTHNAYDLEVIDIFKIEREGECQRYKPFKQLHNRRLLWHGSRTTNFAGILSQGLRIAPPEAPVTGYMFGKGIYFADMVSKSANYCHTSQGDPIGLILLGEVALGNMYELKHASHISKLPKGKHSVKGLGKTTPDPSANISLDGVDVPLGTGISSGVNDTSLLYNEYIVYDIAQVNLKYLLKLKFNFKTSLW

[3] = target: T2, full length N-terminally FLAG-tagged PARP1; test: PARP1 biochemical DELFIA assay (auto-PARylation); design: recombinant full length human N-terminally FLAG-tagged PARP1
[4] = read-out: PARP1 HTRF, probe displacement HTRF
[5] = binned IC50, biochemical auto-PARylation assay
[6] = read-out: PARP1 HTRF, PARP1 probe displacement HTRF
[7] = binned IC50, PARP1 biochemical DELFIA assay
[8] = PARP1 HTRF, PARP1 probe displacement HTRF

T1 sequence (Q9UGN5 whole entry, the tested form may be a part): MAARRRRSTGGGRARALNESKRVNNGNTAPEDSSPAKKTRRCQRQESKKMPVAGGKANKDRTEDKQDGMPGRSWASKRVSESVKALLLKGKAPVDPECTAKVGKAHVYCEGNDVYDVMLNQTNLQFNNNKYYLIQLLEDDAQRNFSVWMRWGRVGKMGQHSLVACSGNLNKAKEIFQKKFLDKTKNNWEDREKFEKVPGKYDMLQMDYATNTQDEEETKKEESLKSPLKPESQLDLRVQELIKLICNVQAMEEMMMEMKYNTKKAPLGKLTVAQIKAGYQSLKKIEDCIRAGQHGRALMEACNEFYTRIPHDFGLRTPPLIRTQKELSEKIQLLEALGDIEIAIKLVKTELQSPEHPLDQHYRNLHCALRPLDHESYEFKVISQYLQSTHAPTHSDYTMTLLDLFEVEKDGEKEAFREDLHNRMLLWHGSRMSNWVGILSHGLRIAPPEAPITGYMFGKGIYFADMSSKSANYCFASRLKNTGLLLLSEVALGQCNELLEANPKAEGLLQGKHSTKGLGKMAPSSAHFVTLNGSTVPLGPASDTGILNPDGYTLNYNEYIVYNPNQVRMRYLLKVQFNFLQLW

Kd ([1]; probe displacement HTRF) [nM]	Kd [2, 4] [nM]	IC50 [3, 5] [nM]	Kd ([1]; PARP2 probe displacement HTRF) [nM]	Kd [2, 6] [nM]	IC50 [3, 7] [nM]	Kd [2, 8] [nM]	SMILES	Selectivity ([2]; probe displacement HTRF)
1000 to 10000	10 to 100	10 to 100	–	–	–	–	CC(=O)NC(=O)c1ccc(N2CCC(N3CCC(c4cc5ccccc5c(=O)[nH]4)C3)CC2)cn1 (single isomer, unassigned) [Compound 333b]	+++ (+++ indicate a value of at least 100)
–	–	–	> 10000	100 to 1000	100 to 1000	–	CNC(=O)c1ccc(N2CCC(N3CCCC(c4ccc(C5CC5)c(=O)[nH]4)C3)CC2)cn1 (single isomer, unassigned) [Compound 126b]	+ (+ indicates a value of 10 to less than 50)
–	–	–	1000 to 10000	–	100 to 1000	100 to 1000	CNC(=O)c1ccc(N2CCC(N3CCCC(c4nc5ccccc5c(=O)[nH]4)C3)CC2)cn1 (single isomer, unassigned) [Compound 6b, N-methyl-5-(3-(4-oxo-3,4-dihydroquinazolin-2-yl)-[1,4′-bipiperidin]-1′-yl)picolinamide]	+ (+ indicates a value of 10 to less than 50)
–	–	–	100 to 1000	10 to 100	10 to 100	–	CNC(=O)c1ccc(N2CCC(N3CCC(c4nc5c(c(=O)[nH]4)CCCC5)C3)CC2)cn1 (single isomer, unassigned) [Compound 155a]	+ (+ indicates a value of 10 to less than 50)
1000 to 10000	< 10	< 10	–	–	–	–	CCCc1ccc(C2CCN(C3CCN(c4ccc(C(=O)NC)nc4)CC3)C2)[nH]c1=O (single isomer, unassigned) [Compound 261b]	+++ (+++ indicate a value of at least 100)
–	–	–	> 10000	10 to 100	< 10	–	CNC(=O)c1ccc(N2CCC(N3CCCC(c4ccc(CC(F)(F)F)c(=O)[nH]4)C3)CC2)cn1 (single isomer, unassigned) [Compound 169b]	+++ (+++ indicate a value of at least 100)
100 to 1000	100 to 1000	100 to 1000	–	–	–	–	CNC(=O)c1ccc(N2CCC(N3CCC(c4cc5cccc(F)c5c(=O)[nH]4)C3)CC2)cc1F (single isomer, unassigned) [Compound 281b]	− (− indicates a value of less than 10)
–	–	–	100 to 1000	< 10	< 10	–	CNC(=O)c1ccc(N2CCC(N3CCC(c4cc5c(C(F)(F)F)cccc5c(=O)[nH]4)C3)CC2)cn1 (single isomer, unassigned) [Compound 167b]	+++ (+++ indicate a value of at least 100)
–	–	–	1000 to 10000	< 10	< 10	–	NC(=O)c1ccc(N2CCC(N3CCC(c4nc5ccccc5c(=O)[nH]4)C3)CC2)cn1 (single isomer, unassigned) [Compound 123b]	+++ (+++ indicate a value of at least 100)
10 to 100	< 10	< 10	–	–	–	–	CNC(=O)c1ccc(N2CCC(N3CCC(c4cc5c(c(=O)[nH]4)CCCC5)C3)CC2)cn1 (racemic) [Compound 336rac]	++ (++ indicates a value of 50 to less than 100)
100 to 1000	10 to 100	10 to 100	–	–	–	–	CC(=O)NC(=O)c1ccc(N2CCC(N3CCC(c4cc5ccccc5c(=O)[nH]4)C3)CC2)cc1 (single isomer, unassigned) [Compound 341b]	+ (+ indicates a value of 10 to less than 50)
–	–	–	1000 to 10000	–	< 10	< 10	CCc1ccc(C2CCCN(C3CCN(c4ccc(C(=O)NC)nc4)CC3)C2)[nH]c1=O (single isomer, unassigned) [Compound 53a, 5-{4-[3-(5-ethyl-6-oxo-1H-pyridin-2-yl)piperidin-1-yl]piperidin-1-yl}-N-methylpyridine-2-carboxamide]	+++ (+++ indicate a value of at least 100)
–	–	–	1000 to 10000	10 to 100	10 to 100	–	CNC(=O)c1ccc(N2CCC(N3CCC(c4cc5cccc(Cl)c5c(=O)[nH]4)C3)CC2)cn1 (single isomer, unassigned) [Compound 128a]	+++ (+++ indicate a value of at least 100)
–	–	–	> 10000	100 to 1000	100 to 1000	–	CNC(=O)c1ccc(N2CCC(N3CCCC(Cc4nc5ccccc5c(=O)[nH]4)C3)CC2)cn1 (single isomer, unassigned) [Compound 57b]	+ (+ indicates a value of 10 to less than 50)
100 to 1000	< 10	< 10	–	–	–	–	CNC(=O)c1ncc(N2CCC(N3CCC(c4cc5cccc(F)c5c(=O)[nH]4)C3)CC2)c(C)n1 (racemic) [Compound 241rac]	+++ (+++ indicate a value of at least 100)
> 10000	10 to 100	10 to 100	–	–	–	–	CNC(=O)c1ccc(N2CCC(N3CCC(c4ccc(CCOC)c(=O)[nH]4)C3)CC2)cn1 (single isomer, unassigned) [Compound 240a]	++ (++ indicates a value of 50 to less than 100)
100 to 1000	< 10	< 10	–	–	–	–	O=C(NC1CC1)c1ccc(N2CCC(N3CCC(c4cc5cccc(F)c5c(=O)[nH]4)C3)CC2)cn1 (single isomer, unassigned) [Compound 339b]	+++ (+++ indicate a value of at least 100)
1000 to 10000	100 to 1000	100 to 1000	–	–	–	–	N#Cc1ccc(N2CCC(N3CCC(c4cc5cccc(F)c5c(=O)[nH]4)C3)CC2)c(F)c1 (single isomer, unassigned) [Compound 356b]	+ (+ indicates a value of 10 to less than 50)
10 to 100	< 10	< 10	–	–	–	–	O=C(NC1CC1)c1ccc(N2CCC(N3CCC(c4cc5ncc(F)cc5c(=O)[nH]4)C3)CC2)cn1 (single isomer, unassigned) [Compound 372b]	+++ (+++ indicate a value of at least 100)
–	–	–	100 to 1000	< 10	< 10	–	O=c1[nH]c(C2CCN(C3CCN(c4ccc(Cl)cc4)CC3)C2)nc2ccccc12 (single isomer, unassigned) [Compound 43b]	+ (+ indicates a value of 10 to less than 50)
–	–	–	> 10000	< 10	< 10	–	CCc1ccc(C2CCN(C3CCN(c4ccc(C(=O)NC)nc4F)CC3)C2)[nH]c1=O (single isomer, unassigned) [Compound 151b, 5-(4-(3-(5-ethyl-6-oxo-1,6-dihydropyridin-2-yl)pyrrolidin-1-yl)piperidin-1-yl)-6-fluoro-N-methylpicolinamide]	+++ (+++ indicate a value of at least 100)
–	–	–	100 to 1000	< 10	< 10	–	CNC(=O)c1ccc(N2CCC(N3CCC(c4cc5cccc(F)c5c(=O)[nH]4)C3)CC2)c(C)n1 (single isomer, unassigned) [Compound 206a]	+++ (+++ indicate a value of at least 100)
100 to 1000	10 to 100	10 to 100	–	–	–	–	N#Cc1ccc(N2CCC(N3CCC(c4cc5cccc(F)c5c(=O)[nH]4)C3)CC2)cn1 (single isomer, unassigned) [Compound 316b]	+ (+ indicates a value of 10 to less than 50)
